“And” between values parts separate entries of the source, which are not always exact repeats. Equal values may be shown once.
What was measured:
α1β1 GABAA receptors = molecular target: T1, α1β1 GABAA receptors (Rattus norvegicus, UniProt P15431+P62813); assay: Two electrode voltage clamp in Xenopus laevis oocytes, α1β1; format: cell-based; conditions: α1β1
T1 construct: expressed in transfected cells; host or cells: Xenopus laevis oocytes, mRNA injected
Excerpt: (§1) cDNA’s of rat GABAA receptor subunits α1, α4, β1, β2, β3 and γ2S were cloned as described. cDNAs of the rat subunits α2, α3 and α5 were gifts from P. Malherbe, that of α6 and γ1 were gifts of P. Seeburg and that of δ was a gift of C. Czajkowski. The mutants were constructed using the Q5 Site-Directed Mutagenesis Kit (New England Biolabs) following manufacturer’s instruction. We used the wild-type rat β3-pCI vector as template and the primers […] and […] resulting in a substitution of amino acid N41 (AAC) to R (AGG). We used the wild-type rat β1-pCI vector as template and the primers […] and […] resulting in a substitution of amino acid R41 (CGG) to N (AAC). The mutated subunits were confirmed by sequencing.
(§2) In vitro transcription of mRNA was based on the cDNA expression vectors encoding for rat GABAA receptor subunits α1–6, β1-3, γ1,2, δ and the two β mutants (β1R41N and β3N41R)[40]. After linearizing the cDNA vectors with appropriate restriction endonucleases, the cDNA was purified and concentrated with the DNA Clean and Contentrator ^TM Kit (Zymoresearch, Catalog No. D4005). Capped transcripts of the purified cDNA were produced using the mMESSAGE mMACHINE® T7 transcription kit (Ambion, TX, USA) and polyadenylated using the Ambion PolyA tailing kit (Ambion). After transcription and polyadenylation the RNA was purified with the MEGAclear ^TM Kit (Ambion, Catalog No. AM1908). The final RNA concentration was measured on NanoDrop® ND-1000 and finally diluted and stored in diethylpyrocarbonate-treated water at −80 °C. For the microinjection, the RNA of αβ receptor combinations was mixed at 1:1 ratio (which leads to αβ receptors that consist of predominantly 3 beta and 2 alpha subunits[27]), for αkβlγm (k = 1–3, l = 1, 3, m = 1, 2) receptors at 1:1:5 ratio, for αkβ3γ2 (k = 4–6) and αkβlδ (k = 1, 4 and 6, l = 1, 3) receptor combinations at 3:1:5 ratio.
(§3) Mature female Xenopus laevis (Nasco, WI) were anesthetized in a bath of ice-cold 0.17% Tricain (Ethyl-m-aminobenzoate, Sigma, MO) before decapitation in full accordance with all rules of the Austrian animal protection law (see http://www.ris.bka.gv.at/Dokumente/BgblAuth/BGBLA_2012_I_114/BGBLA_2012_I_114.pdf) and the Austrian animal experiment by-laws (see https://www.ris.bka.gv.at/Dokumente/BgblAuth/BGBLA_2012_II_522/BGBLA_2012_II_522.pdf) which implement the European Directive 2010/63/EU (see http://eur-lex.europa.eu/LexUriServ/LexUriServ.do?uri=OJ:L:2010:276:0033:0079:en:PDF) into the Austrian law (all information accessed on July 27, 2016). The frog’s ovaries were transferred to ND96 medium (96 mM NaCl, 2 mM KCl, 1 mM MgCl2, 5 mM HEPES; pH 7.5). Stage 5–6 oocytes with the follicle cell layer around them were roughly dissected with forceps into packages of 10–15 cells and washed in Ca^2+-free ND96 medium. Cells were then digested with collagenase (type IA, Sigma, NO, 1 mg/mL ND96) at 18 °C shaking at 30 rpm for 30–60 minutes and gently defolliculated with the aid of a glass pipette with appropriate tip diameter and a platinum loop. Defolliculated cells were stored at 18 °C for at least 6 hours in ND96 solution containing penicillin G (10000 IU/100 mL) and streptomycin (10 mg/100 mL) in order to preselect and exclude damaged cells from further treatment. Healthy defolliculated oocytes were injected with an aqueous solution of mRNA. A total of 4.5 ng of mRNA per oocyte was injected with a Nanoject II (Drummond). After injection of mRNA, oocytes were incubated at 18 °C (ND96 + antibiotic) for 2–3 days for αβ receptors and for 3–4 days for αβγ or αβδ receptors before recording. When cells were measured at later time points, oocytes were stored at +4 °C instead of 18 °C.
(§4) For electrophysiological recordings, oocytes were placed on a nylon-grid in a bath of Ca^2+-containing NDE solution medium [96 mM NaCl, 5 mM HEPES-NaOH (pH 7.5), 2 mM KCl, 1 mM MgCl2, 1.8 mM CaCl2].

α1β2 GABAA receptors = molecular target: T2, α1β2 GABAA receptors (Rattus norvegicus, UniProt P62813+P63138); assay: Two electrode voltage clamp in Xenopus laevis oocytes, α1β2; format: cell-based; conditions: α1β2
T2 construct: expressed in transfected cells; host or cells: Xenopus laevis oocytes, mRNA injected
T2 sequence (P62813 28-455): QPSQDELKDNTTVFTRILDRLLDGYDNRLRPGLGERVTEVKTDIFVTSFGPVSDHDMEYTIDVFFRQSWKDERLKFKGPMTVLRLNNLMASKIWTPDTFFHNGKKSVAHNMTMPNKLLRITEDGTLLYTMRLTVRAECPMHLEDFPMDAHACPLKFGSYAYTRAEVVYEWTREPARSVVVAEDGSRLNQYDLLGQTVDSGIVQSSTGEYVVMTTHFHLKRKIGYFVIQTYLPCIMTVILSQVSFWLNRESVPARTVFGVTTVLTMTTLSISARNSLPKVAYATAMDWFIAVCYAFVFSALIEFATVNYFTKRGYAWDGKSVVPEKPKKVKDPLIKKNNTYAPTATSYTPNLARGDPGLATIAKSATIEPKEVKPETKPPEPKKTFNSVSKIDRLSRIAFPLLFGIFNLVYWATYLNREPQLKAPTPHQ
T2 sequence (P63138 25-474 limits assumed): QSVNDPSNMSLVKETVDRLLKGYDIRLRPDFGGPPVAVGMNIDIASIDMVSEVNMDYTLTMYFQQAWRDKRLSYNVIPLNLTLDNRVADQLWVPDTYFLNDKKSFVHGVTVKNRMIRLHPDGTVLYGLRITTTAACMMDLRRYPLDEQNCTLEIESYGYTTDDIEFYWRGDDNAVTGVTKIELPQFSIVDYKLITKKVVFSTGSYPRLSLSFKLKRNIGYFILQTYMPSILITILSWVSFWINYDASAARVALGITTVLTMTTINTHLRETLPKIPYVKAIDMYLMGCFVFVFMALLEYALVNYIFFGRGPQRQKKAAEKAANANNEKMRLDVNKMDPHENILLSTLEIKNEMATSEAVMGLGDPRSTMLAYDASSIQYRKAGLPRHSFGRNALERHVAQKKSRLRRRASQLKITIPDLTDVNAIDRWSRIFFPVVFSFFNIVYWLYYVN
Excerpt: as §1, §2, §3, §4

α1β3 GABAA receptors = molecular target: T3, α1β3 GABAA receptors (Rattus norvegicus, UniProt P62813+P63079); assay: Two electrode voltage clamp in Xenopus laevis oocytes, α1β3; format: cell-based; conditions: α1β3
T3 construct: expressed in transfected cells; host or cells: Xenopus laevis oocytes, mRNA injected
T3 sequence (P62813 28-455): as the sequence (P62813 28-455) above
T3 sequence (P63079 26-473): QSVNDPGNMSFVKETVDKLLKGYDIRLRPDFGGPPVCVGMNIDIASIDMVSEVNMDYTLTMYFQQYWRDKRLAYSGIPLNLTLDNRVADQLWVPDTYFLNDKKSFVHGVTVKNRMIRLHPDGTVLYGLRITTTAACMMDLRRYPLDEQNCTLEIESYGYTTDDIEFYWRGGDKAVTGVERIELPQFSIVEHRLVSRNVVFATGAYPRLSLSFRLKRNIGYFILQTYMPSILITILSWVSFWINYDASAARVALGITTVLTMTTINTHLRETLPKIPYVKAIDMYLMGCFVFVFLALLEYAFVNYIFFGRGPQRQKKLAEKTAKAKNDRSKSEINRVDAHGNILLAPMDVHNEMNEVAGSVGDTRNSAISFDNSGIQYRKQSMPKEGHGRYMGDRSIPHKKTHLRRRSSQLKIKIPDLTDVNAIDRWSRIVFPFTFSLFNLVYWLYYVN
Excerpt: as §1, §2, §3, §4

α1β1R41N GABAA receptors = molecular target: T4, α1β1R41N GABAA receptors (Rattus norvegicus, UniProt P15431+P62813, R66N); assay: Two electrode voltage clamp in Xenopus laevis oocytes, mutant α1β1R41N; format: cell-based
T4 construct: expressed in transfected cells; host or cells: Xenopus laevis oocytes, mRNA injected
T4 sequence (P62813 28-455): as the sequence (P62813 28-455) above
T4 sequence (P15431 26-474 R66N): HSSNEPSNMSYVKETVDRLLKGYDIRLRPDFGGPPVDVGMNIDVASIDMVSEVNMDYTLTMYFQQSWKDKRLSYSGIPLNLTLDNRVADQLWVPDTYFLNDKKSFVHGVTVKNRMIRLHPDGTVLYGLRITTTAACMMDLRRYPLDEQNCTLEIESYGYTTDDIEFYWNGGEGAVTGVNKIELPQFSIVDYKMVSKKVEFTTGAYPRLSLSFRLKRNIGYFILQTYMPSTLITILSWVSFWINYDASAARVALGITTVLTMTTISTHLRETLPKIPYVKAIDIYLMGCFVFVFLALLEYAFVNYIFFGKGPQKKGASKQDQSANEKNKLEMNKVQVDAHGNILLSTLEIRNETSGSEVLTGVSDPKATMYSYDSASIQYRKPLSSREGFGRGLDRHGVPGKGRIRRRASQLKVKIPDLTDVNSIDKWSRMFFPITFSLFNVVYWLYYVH
Excerpt: as §1, §2, §3, §4

α1β3N41R GABAA receptors = molecular target: T5, α1β3N41R GABAA receptors (Rattus norvegicus, UniProt P62813+P63079, N66R); assay: Two electrode voltage clamp in Xenopus laevis oocytes, mutant α1β3N41R; format: cell-based
T5 construct: expressed in transfected cells; host or cells: Xenopus laevis oocytes, mRNA injected
T5 sequence (P62813 28-455): as the sequence (P62813 28-455) above
T5 sequence (P63079 26-473 N66R): as the sequence (P63079 26-473) above, with N41R counted along it
Excerpt: as §1, §2, §3, §4

[1] = system: δ subunit containing GABAA receptors; assay: Control of δ subunit incorporation with DS2; format: cell-based, rat; conditions: 1 µM
Protocol: For electrophysiological recordings, oocytes were placed on a nylon-grid in a bath of Ca^2+-containing NDE solution medium [96 mM NaCl, 5 mM HEPES-NaOH (pH 7.5), 2 mM KCl, 1 mM MgCl2, 1.8 mM CaCl2]. For current measurements the oocytes were impaled with two microelectrodes (1–3 MΩ resistance) filled with 2 M KCl. […] The EC3–5 was determined at the beginning of each experiment. Drugs were diluted into NDE from DMSO-solutions resulting in a final concentration of 0.1% DMSO perfusing the oocytes. […] Between two applications, oocytes were washed in NDE for up to 15 min to ensure full recovery from desensitization. Maximum currents measured in mRNA injected oocytes were in the microampere range for all subtypes of GABAA receptors. […] In order to monitor receptor composition, diazepam (~200% modulation at 1 µM) was used to investigate the incorporation of the γ2[25] subunit, DS2 (>800% modulation at 1 µM) for the incorporation of the δ subunit and triazolam (>200% modulation at 10 µM) for the γ1 incorporation. […] All recordings were performed at room temperature at a holding potential of […] using a Dagan TEV-200A two-electrode voltage clamp (Dagan Corporation, Mineapolis, MN). Data were digitized, recorded and measured using an Axon Digidata- 1550 low-noise data acquisition system (Axon Instruments, Union City, CA). […]

[2] = molecular target: T6, γ1 subunit containing GABAA receptors (Rattus norvegicus, UniProt P15431+P62813); assay: Control of γ1 subunit incorporation with triazolam; format: cell-based; conditions: 10 µM
T6 construct: expressed in transfected cells; host or cells: Xenopus laevis oocytes, mRNA injected
T6 sequence (P62813 28-455): as the sequence (P62813 28-455) above
T6 sequence (P15431 26-474): as the sequence (P15431 26-474 R66N) above, with N41R counted along it
T6 sequence (P23574 36-465 partner limits assumed): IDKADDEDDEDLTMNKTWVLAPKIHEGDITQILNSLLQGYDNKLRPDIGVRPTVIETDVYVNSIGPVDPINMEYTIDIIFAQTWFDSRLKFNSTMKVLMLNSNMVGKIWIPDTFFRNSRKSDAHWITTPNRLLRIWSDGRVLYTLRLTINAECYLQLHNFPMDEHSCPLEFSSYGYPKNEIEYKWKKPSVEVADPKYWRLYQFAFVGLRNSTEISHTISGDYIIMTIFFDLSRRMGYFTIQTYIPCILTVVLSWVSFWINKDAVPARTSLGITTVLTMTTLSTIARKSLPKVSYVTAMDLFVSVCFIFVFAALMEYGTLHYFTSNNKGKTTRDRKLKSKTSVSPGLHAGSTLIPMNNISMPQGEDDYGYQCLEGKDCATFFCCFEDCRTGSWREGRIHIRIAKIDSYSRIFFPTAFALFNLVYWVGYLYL
Protocol: For electrophysiological recordings, oocytes were placed on a nylon-grid in a bath of Ca^2+-containing NDE solution medium [96 mM NaCl, 5 mM HEPES-NaOH (pH 7.5), 2 mM KCl, 1 mM MgCl2, 1.8 mM CaCl2]. For current measurements the oocytes were impaled with two microelectrodes (1–3 MΩ resistance) filled with 2 M KCl. […] The EC3–5 was determined at the beginning of each experiment. Drugs were diluted into NDE from DMSO-solutions resulting in a final concentration of 0.1% DMSO perfusing the oocytes. […] Between two applications, oocytes were washed in NDE for up to 15 min to ensure full recovery from desensitization. […] All recordings were performed at room temperature at a holding potential of […] using a Dagan TEV-200A two-electrode voltage clamp (Dagan Corporation, Mineapolis, MN). Data were digitized, recorded and measured using an Axon Digidata- 1550 low-noise data acquisition system (Axon Instruments, Union City, CA).

T1 sequence (P62813 28-455): as the sequence (P62813 28-455) above
T1 sequence (P15431 26-474): as the sequence (P15431 26-474 R66N) above, with N41R counted along it

## NCCCC(=O)O [GABA, γ-Aminobutyric acid]
α1β1 GABAA receptors; 100 nM GABA
  GABA current amplitude: 0.1±0.0 µA
α1β1 GABAA receptors; 1 µM GABA
  GABA current amplitude: 0.7±0.1 µA
α1β1 GABAA receptors; 10 μM GABA
  GABA current amplitude: 2.2±0.3 µA
α1β1 GABAA receptors; 100 µM GABA
  GABA current amplitude: 3.1±0.4 µA
α1β1 GABAA receptors; 1 mM GABA
  GABA current amplitude: 4.0±0.5 µA
α1β1 GABAA receptors; GABA dose-response curve
  GABA Hill slope (nH): 0.6±0.3
α1β2 GABAA receptors; 100 nM GABA
  GABA current amplitude: 0.0±0.0 µA
α1β2 GABAA receptors; 1 µM GABA
  GABA current amplitude: 0.5±0.2 µA
α1β2 GABAA receptors; 10 μM GABA
  GABA current amplitude: 1.9±0.5 µA
α1β2 GABAA receptors; 100 µM GABA
  GABA current amplitude: 2.6±0.6 µA
α1β2 GABAA receptors; 1 mM GABA
  GABA current amplitude: 3.1±0.7 µA
α1β2 GABAA receptors; GABA dose-response curve
  GABA Hill slope (nH): 0.7±0.1
α1β3 GABAA receptors; 100 nM GABA
  GABA current amplitude: 0.0±0.0 µA
α1β3 GABAA receptors; 1 µM GABA
  GABA current amplitude: 0.5±0.1 µA
α1β3 GABAA receptors; 10 μM GABA
  GABA current amplitude: 1.9±0.3 µA
α1β3 GABAA receptors; 100 µM GABA
  GABA current amplitude: 2.7±0.4 µA
α1β3 GABAA receptors; 1 mM GABA
  GABA current amplitude: 3.5±0.5 µA
α1β3 GABAA receptors; GABA dose-response curve
  GABA Hill slope (nH): 0.7±0.0
α1β1R41N GABAA receptors; 100 nM GABA
  GABA current amplitude: 0.1±0.0 µA
α1β1R41N GABAA receptors; 1 µM GABA
  GABA current amplitude: 0.7±0.1 µA
α1β1R41N GABAA receptors; 10 μM GABA
  GABA current amplitude: 2.3±0.5 µA
α1β1R41N GABAA receptors; 100 µM GABA
  GABA current amplitude: 2.9±0.7 µA
α1β1R41N GABAA receptors; 1 mM GABA
  GABA current amplitude: 2.8±0.8 µA
α1β1R41N GABAA receptors; GABA dose-response curve
  GABA Hill slope (nH): 1.2±0.1 and ~ 1.2
α1β3N41R GABAA receptors; 100 nM GABA
  GABA current amplitude: 0.0±0.0 µA
α1β3N41R GABAA receptors; 1 µM GABA
  GABA current amplitude: 1.3±0.5 µA
α1β3N41R GABAA receptors; 10 μM GABA
  GABA current amplitude: 3.5±0.9 µA
α1β3N41R GABAA receptors; 100 µM GABA
  GABA current amplitude: 4.0±1.1 µA
α1β3N41R GABAA receptors; 1 mM GABA
  GABA current amplitude: 4.1±1.2 µA
α1β3N41R GABAA receptors; GABA dose-response curve
  GABA Hill slope (nH): 1.2±0.1 and ~ 1.2

## O=C(Nc1c(-c2cccs2)nc2ccccn12)c1ccc(Cl)cc1 [DS2]
[1]
  modulation: > 800%

## Cc1nnc2n1-c1ccc(Cl)cc1C(c1ccccc1Cl)=NC2 [triazolam, Triazolam]
[2]
  modulation: > 200%

Source: article PMC5516028, “Molecular tools for GABAA receptors: High affinity ligands for β1-containing subtypes” (Scientific Reports, 2017)
